The subject of the assay is mold growth on cheese chunks. Briefly: Mold growth on refrigerated cheese chunks exposed to ambient air after surface treatment. The protocol: In one particular embodiment, the material applied comprises a suspension of natamycin in an aqueous saline solution. […] In a preferred embodiment of the invention, the process applies an average surface concentration of about 1.0 to 1.1 μg/cm^2 to ensure that an adequate concentration is applied over substantially the entire exterior surface. Application of natamycian at these average surface concentrations with the apparatus of the invention ensures that substantially all of the cheese chunk surface area has a surface concentration of at least about 0.5 μg/cm^2.
The efficacy of an antimycotic agent may be measured in terms of the number of days during which mold growth is retarded in treated samples, relative to untreated control samples. Generally, if mold growth is retarded by 45 days or more, the antimycotic may be considered effective. The absolute length of time during which mold growth is delayed depends on the mold load in the ambient air, in addition to effects of antimycotic agents.

The structures appear in SMILES notation.

Consider `C[C@@H]1C/C=C/C=C/C=C/C=C/[C@H](O[C@@H]2O[C@H](C)[C@@H](O)[C@H](N)[C@@H]2O)C[C@@H]2O[C@](O)(C[C@@H](O)C[C@H]3O[C@@H]3/C=C/C(=O)O1)C[C@H](O)[C@H]2C(=O)O` [natamycin], for which, under “preferred embodiment (average surface concentration about 1.0 to 1.1 μg/cm^2), refrigerated at 35° F. to 45° F., exposed to ambient air”, the “number of days by which mold growth is retarded (relative to untreated control samples)” value is listed as “over 45 days”. Under “preferred embodiment, in some cases, refrigerated at 35° F. to 45° F., exposed to ambient air”, the “time cheese chunks remained mold-free” value was “over 200 days”. The “surface concentration level found effective in preventing mold growth” value (refrigerated cheese chunks exposed to ambient air for extended periods, natamycin suspension in aqueous saline solution applied by spray) is recorded as “about 0.5 μg/cm^2”.

The values above are taken from US6589580B1, “Method and apparatus for application of surface treatment to food products” (Kraft Foods Holdings, Inc., priority 1999, dated 2003).
